From article PMC6222802 (Molecules : A Journal of Synthetic Chemistry and Natural …, 2018) come the findings set out here.

One data set concerns H22 tumor bearing mice. The experiment in a line: Antitumor activity and toxicity in vivo in H22 tumor bearing mice. Also noted: species or system KM mice. Particulars: for tumor inhibition rate: 50 mg/kg, administered for 6 days, H22 tumor bearing mice; for toxicity, organ-to-body weight ratios (organ indexes: thymus, brain, lung, heart, liver, kidney, spleen) compared with NS: 50 and 30 mg/kg (CP 50 mg/kg); for body weight change compared with NS group: even at the dose of 50 mg/kg.

For data set [1], the system named is H22 cells. The experiment in a line: cells. Particulars: Mus musculus, H22, 48 h, read-out: IC50, H22.
The next data set deals with K562 cells. The experiment in a line: cells. Particulars: Homo sapiens, K562, 48 h, read-out: IC50, K562.
In data set [2] the test system is S180 cells. The experiment in a line: cells. Particulars: S-180, 48 h, read-out: IC50, S180.
The subject of another data set is MCF-7 cells. As to the kind of experiment: cells. Conditions: Homo sapiens, MCF7, 48 h, read-out: IC50, MCF-7.
The next data set deals with L929 cells. The experiment in a line: cells. Conditions: Mus musculus, L929, 48 h, read-out: IC50, L929.
The test system of another data set is LoVo cells. The experiment in a line: cells. Conditions: Homo sapiens, 48 h, read-out: IC50, LoVo.
For data set [3], the system named is H22 cells.
For data set [4], the system named is S180 cells.
Data set [5] concerns H22 cells. As to the kind of experiment: Cell cycle analysis by flow cytometry (PI). The class given is cell-based. Conditions: 3 μM, 48 h; for Distribution (%) G2/M: control 12.26%; for percentage of G1-phase cells: control 15.32%; for percentage of S-phase cells: control 72.42%. How it is done: To determine whether the suppression of cell growth by the compounds was caused by a cell-cycle effect, we used a cell cycle analysis kit to detect the DNA content of cell nuclei.
H22 cells were treated with 7a–7e at 3 μM at 37 °C for 48 h and then cells were harvested, centrifuged, resuspended and fixed in 70% EtOH overnight at 4 °C. The fixed cells were digested by RNase A (0.25 mg·mL^−1) at 37 °C for 30 min, and stained with PI (50 μg·mL^−1) in the dark at room temperature for 30 min. The distribution of the cell cycle was analyzed by Flow Cytometer.
Background: A flow cytometer gives signals particle by particle.

As for `O=P1(N(CCCl)CCCl)NCCCO1` (stereo not shown) [CP, cyclophosphamide, reference compound], in the data set on H22 tumor bearing mice, the tumor inhibition rate came to 72.22%; the “toxicity, organ-to-body weight ratios (organ indexes: thymus, brain, lung, heart, liver, kidney, spleen) compared with NS” value was “significantly increase the liver and spleen indexes”.
The term IC50 denotes the point on the concentration scale where inhibition reaches its midpoint. In the case of `O=C1CCC[C@@H]2[C@H]3CCCN4CCC[C@H](CN12)[C@@H]34` [Compound 1, Sophoridine, reference compound], the IC50 in the data set with H22 cells [1], with K562 cells, in the data set on S180 cells [2], in the data set on MCF-7 cells, in the data set on L929 cells and in the data set on LoVo cells was > 100 µM throughout.
As for `COC(=O)CCC[C@@H]1[C@H]2CCCN3CCC[C@H](CN1P(=O)(Oc1ccc(C)cc1)N(CCCl)CCCl)[C@@H]23` (stereo partly shown) [Compound 7a], the “SI ** selectivity index (SI) of H22 against L929” value (“SI ** selectivity index (SI)” below) in the data set on H22 cells [3] is listed as 83.10. For the same compound, the IC50 in the data set with H22 cells [1] was 2.17 ± 0.13 µM; in the data set on K562 cells, 27.1 ± 2.51 µM; in the data set on S180 cells [2], 2.89 ± 0.23 µM; with MCF-7 cells, 61.2 ± 2.21 µM; in the data set on L929 cells, 181 ± 4.56 µM; in the data set with LoVo cells it was 62.5 ± 2.32 µM. In the data set with S180 cells [4], the “SI * selectivity index (SI) of S180 against L929” value (from here on “SI * selectivity index (SI)”) is recorded as 62.51. In the data set on H22 tumor bearing mice, this compound showed a tumor inhibition rate of 46.95%. In the data set with H22 tumor bearing mice, the “toxicity, organ-to-body weight ratios (organ indexes: thymus, brain, lung, heart, liver, kidney, spleen) compared with NS” value is listed as “induced low toxicity”. The “body weight change compared with NS group” value (from here on “body weight change”) in the data set with H22 tumor bearing mice was “did not significantly cause body weight change”. Moreover, the “Distribution (%) G2/M” value in the data set with H22 cells [5] amounted to 15.15%. Besides, in the data set on H22 cells [5], the “percentage of G1-phase cells” value is on record as 32.02%. Further, the “percentage of S-phase cells” value with H22 cells [5] worked out at 52.83%.
As for `COC(=O)CCC[C@@H]1[C@H]2CCCN3CCC[C@H](CN1P(=O)(Oc1ccc(OC)cc1)N(CCCl)CCCl)[C@@H]23` (stereo partly shown) [Compound 7b], the “SI ** selectivity index (SI)” value with H22 cells [3] came to 39.36. Moreover, the IC50 with H22 cells [1] was determined as 2.65 ± 0.25 µM; in the data set on K562 cells it was 54.5 ± 2.32 µM; in the data set with S180 cells [2] it was 3.5 ± 0.35 µM; in the data set with MCF-7 cells, 38.9 ± 2.56 µM; in the data set with L929 cells, 104 ± 3.2 µM; in the data set with LoVo cells, 46.2 ± 2.32 µM. Further, the “SI * selectivity index (SI)” value in the data set on S180 cells [4] was 29.80. In addition, the “Distribution (%) G2/M” value with H22 cells [5] stood at 12.70%. Besides, the “percentage of G1-phase cells” value in the data set on H22 cells [5] is 15.44%. In the data set on H22 cells [5], the “percentage of S-phase cells” value is recorded as 71.86%.
For `COC(=O)CCC[C@@H]1[C@H]2CCCN3CCC[C@H](CN1P(=O)(Oc1ccc(Cl)cc1)N(CCCl)CCCl)[C@@H]23` (stereo partly shown) [Compound 7c], in the data set on H22 cells [3], the “SI ** selectivity index (SI)” value was 160.80; the “kinetics of growth inhibition, H22” value was “concentration-dependent and time-dependent”. In addition, the IC50 in the data set with H22 cells [1] turned out to be 1.01 ± 0.08 µM. Besides, in the data set with K562 cells, the IC50 was found to be 18.1 ± 1.34 µM. In addition, in the data set on S180 cells [4], the “SI * selectivity index (SI)” value was found to be 80.40; the “kinetics of growth inhibition, S180” value is “concentration-dependent and time-dependent”. In the data set on H22 tumor bearing mice, the tumor inhibition rate was 54.83%; the “toxicity, organ-to-body weight ratios (organ indexes: thymus, brain, lung, heart, liver, kidney, spleen) compared with NS” value is listed as “induced low toxicity”; the “body weight change” value is reported as “did not significantly cause body weight change”. Also, in the data set with H22 cells [5], the “Distribution (%) G2/M” value is 6.30%, the “percentage of G1-phase cells” value is reported as 51.22% and the “percentage of S-phase cells” value was 42.48%. The IC50 with S180 cells [2] was determined as 2.02 ± 0.17 µM. In addition, in the data set on MCF-7 cells, the half-maximal inhibitory concentration (IC50) came out at 31.9 ± 2.45 µM. In addition, the IC50 in the data set with L929 cells worked out at 162 ± 4.12 µM. The IC50 with LoVo cells turned out to be 33.4 ± 2.45 µM.
On to `COC(=O)CCC[C@@H]1[C@H]2CCCN3CCC[C@H](CN1P(=O)(Oc1ccc([N+](=O)[O-])cc1)N(CCCl)CCCl)[C@@H]23` (stereo partly shown) [Compound 7d], for which, in the data set with H22 cells [3], the “SI ** selectivity index (SI)” value amounted to 58.51. In addition, the “kinetics of growth inhibition, H22” value with H22 cells [3] was “concentration-dependent and time-dependent”. Moreover, the IC50 was found to be 1.8 ± 0.12 µM with H22 cells [1]; 20.3 ± 2.05 µM in the data set on K562 cells; 2.01 ± 0.14 µM with S180 cells [2]; 34.6 ± 2.21 µM in the data set on MCF-7 cells; 105 ± 3.1 µM in the data set with L929 cells; 32.2 ± 2.21 µM in the data set with LoVo cells. The “SI * selectivity index (SI)” value in the data set with S180 cells [4] worked out at 52.40. Further, in the data set with S180 cells [4], the “kinetics of growth inhibition, S180” value was “concentration-dependent and time-dependent”. The “Distribution (%) G2/M” value in the data set on H22 cells [5] was found to be 15.66%. Further, in the data set with H22 cells [5], the “percentage of G1-phase cells” value is 16.10%. Besides, the “percentage of S-phase cells” value in the data set on H22 cells [5] was found to be 68.24%.
On to `COC(=O)CCC[C@@H]1[C@H]2CCCN3CCC[C@H](CN1P(=O)(Oc1ccccc1)N(CCCl)CCCl)[C@@H]23` (stereo partly shown) [Compound 7e], for which the “SI ** selectivity index (SI)” value in the data set with H22 cells [3] was determined as 74.89. Further, the IC50 is 1.85 ± 0.16 µM with H22 cells [1]; 32.7 ± 2.56 µM in the data set with K562 cells; 3.65 ± 0.25 µM in the data set with S180 cells [2]; 86.6 ± 2.67 µM in the data set with MCF-7 cells; 139 ± 3.35 µM in the data set with L929 cells; 70 ± 2.78 µM in the data set on LoVo cells. Further, in the data set with S180 cells [4], the “SI * selectivity index (SI)” value turned out to be 37.96. For the same compound, the tumor inhibition rate with H22 tumor bearing mice was determined as 47.78%. The “toxicity, organ-to-body weight ratios (organ indexes: thymus, brain, lung, heart, liver, kidney, spleen) compared with NS” value with H22 tumor bearing mice is given as “induced low toxicity”. In addition, the “body weight change” value with H22 tumor bearing mice is “did not significantly cause body weight change”. Moreover, in the data set with H22 cells [5], the “Distribution (%) G2/M” value was 11.75%. Moreover, the “percentage of G1-phase cells” value in the data set on H22 cells [5] came to 17.21%. Also, the “percentage of S-phase cells” value in the data set on H22 cells [5] is listed as 71.04%.
On to `COc1cccc2c1C(=O)c1c(O)c3c(c(O)c1C2=O)C[C@@](O)(C(=O)CO)C[C@@H]3O[C@H]1C[C@H](N)[C@H](O)[C@H](C)O1` [Dox, Doxorubicin, reference compound], for which the IC50 with H22 cells [1] was found to be 36.5 ± 2.56 µM; with K562 cells, 17.2 ± 1.78 µM; in the data set on S180 cells [2] it was 29.2 ± 2.07 µM; in the data set with MCF-7 cells, 0.44 ± 0.08 µM; with L929 cells, 0.23 ± 0.08 µM; in the data set with LoVo cells, 0.15 ± 0.02 µM.
